As usually defined, the IC50 is the concentration at which inhibition is half-maximal. Read a high IC50 as weaker potency in that assay.

The text below walks through data of patent US6686355B2, “Biphenyl sulfonamides useful as matrix metalloproteinase inhibitors” (Warner-Lambert Company, priority 2001, dated 2004).

Holding throughout (format): biochemical
The target in assay [1] is T1, MMP-2FL (full length Gelatinase A) (Homo sapiens, UniProt P08253).
T1 sequence (P08253 110-660): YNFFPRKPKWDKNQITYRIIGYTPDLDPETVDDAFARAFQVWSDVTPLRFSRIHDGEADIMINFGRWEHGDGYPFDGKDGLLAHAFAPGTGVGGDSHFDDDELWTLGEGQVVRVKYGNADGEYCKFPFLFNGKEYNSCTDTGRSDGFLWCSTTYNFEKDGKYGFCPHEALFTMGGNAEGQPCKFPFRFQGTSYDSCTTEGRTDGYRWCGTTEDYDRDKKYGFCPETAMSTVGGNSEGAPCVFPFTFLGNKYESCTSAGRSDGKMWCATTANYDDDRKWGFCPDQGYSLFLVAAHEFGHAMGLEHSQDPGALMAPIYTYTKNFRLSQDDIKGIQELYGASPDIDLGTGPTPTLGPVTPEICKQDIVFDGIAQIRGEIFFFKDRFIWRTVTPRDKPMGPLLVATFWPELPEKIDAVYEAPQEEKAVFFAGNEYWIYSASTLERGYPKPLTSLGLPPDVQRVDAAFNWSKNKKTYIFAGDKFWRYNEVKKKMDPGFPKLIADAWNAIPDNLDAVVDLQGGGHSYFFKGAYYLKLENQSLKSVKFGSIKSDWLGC
Nature of the assay: Thiopeptolide hydrolysis assay, MMP-2FL. As to conditions: thiopeptolide substrate, HEPES pH 7.0, 22° C. From the text: (§1) The assays measure the amount by which a test compound reduces the hydrolysis of a thiopeptolide substrate catalyzed by a matrix metalloproteinase enzyme. Such assays are described in detail by Ye et al., in Biochemistry, 1992;31(45):11231-11235, which is incorporated herein by reference.
(§2) Thiopeptolide substrates show virtually no decomposition or hydrolysis at or below neutral pH in the absence of a matrix metalloproteinase enzyme. A typical thiopeptolide substrate commonly utilized for assays is Ac-Pro-Leu-Gly-thioester-Leu-Leu-Gly-OEt. A 100 μL assay mixture will contain 50 mM of N-2-hydroxyethylpiperazine-N′-2-ethanesulfonic acid buffer (“HEPES”) at pH 7.0, 10 mM CaCl2, 100 μM thiopeptolide substrate, and 1 mM 5,5″-dithio-bis-(2-nitro-benzoic acid) (DTNB). The thiopeptolide substrate concentration may be varied from, for example, 10 to 800 μM to obtain Km and Kcat values. The change in absorbance at 405 nm is monitored on a Thermo Max microplate reader (Molecular Devices, Menlo Park, Calif.) at room temperature (22° C.). The calculation of the amount of hydrolysis of the thiopeptolide substrate is based on E412=13600 M^−1 cm^−1 for the DTNB-derived product 3-carboxy4-nitrothiophenoxide. Assays are carried out with and without matrix metalloproteinase inhibitor compounds, and the amount of hydrolysis is compared for a determination of inhibitory activity of the test compounds.
(§3) Several representative compounds have been evaluated for their ability to inhibit various matrix metalloproteinase enzymes. In Table I, MMP-1FL refers to full length interstitial collagenase; MMP-2FL refers to full length Gelatinase A; MMP-3CD refers to the catalytic domain of stromelysin-1; MMP-7FL refers to full length matrilysin; MMP-9FL refers to full length Gelatinase B; MMP-13CD refers to the catalytic domain of collagenase 3; and MMP-14CD refers to the catalytic domain of MMP-14. Test compounds were evaluated at various concentrations in order to determine their respective IC50 values, the micromolar concentration of compound required to cause a 50% inhibition of the catalytic activity of the respective enzyme.

Assay [2] deals with MMP-3CD (catalytic domain of stromelysin-1) (Homo sapiens, UniProt P08254). Nature of the assay: Thiopeptolide hydrolysis assay, MMP-3CD. As to conditions: thiopeptolide substrate, MES pH 6.0.
Description: as §1, §2, §3
It should be appreciated that the assay buffer used with MMP-3CD was 50 mM of 2-morpholinoethanesulfonic acid monohydrate (“MES”) at pH 6.0 rather than the HEPES buffer at pH 7.0 described above.

The target in assay [3] is MMP-9FL (full length Gelatinase B) (Homo sapiens, UniProt P14780). The experiment in a line: Thiopeptolide hydrolysis assay, MMP-9FL. As to conditions: thiopeptolide substrate, HEPES pH 7.0, 22° C.
Description: as §1, §2, §3

The target of assay [4] is MMP-13CD (catalytic domain of collagenase 3) (Homo sapiens, UniProt P45452). Nature of the assay: Thiopeptolide hydrolysis assay, MMP-13CD. The conditions noted are these: thiopeptolide substrate, HEPES pH 7.0, 22° C.
Description: as §1, §2, §3

For assay [5], the target named is MMP-14CD (catalytic domain of MMP-14) (Homo sapiens, UniProt P50281). The experiment in a line: Thiopeptolide hydrolysis assay, MMP-14CD. The conditions noted are these: thiopeptolide substrate, HEPES pH 7.0, 22° C.
Description: as §1, §2, §3

For assay [6], the target named is T2, MMP-1FL (full length interstitial collagenase) (Homo sapiens, UniProt P03956).
T2 sequence (P03956 100-469): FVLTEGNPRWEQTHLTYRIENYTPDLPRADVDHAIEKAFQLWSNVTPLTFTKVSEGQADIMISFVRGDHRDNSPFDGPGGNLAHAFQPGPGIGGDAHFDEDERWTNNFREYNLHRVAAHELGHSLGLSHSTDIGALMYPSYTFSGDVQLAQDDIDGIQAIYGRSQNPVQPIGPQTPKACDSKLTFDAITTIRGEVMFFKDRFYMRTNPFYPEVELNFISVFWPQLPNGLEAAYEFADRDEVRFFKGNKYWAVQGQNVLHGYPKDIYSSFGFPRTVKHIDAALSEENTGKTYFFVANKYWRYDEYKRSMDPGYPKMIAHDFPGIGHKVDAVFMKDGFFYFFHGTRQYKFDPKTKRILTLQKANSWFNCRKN
The experiment in a line: Thiopeptolide hydrolysis assay, MMP-1FL. The conditions noted are these: thiopeptolide substrate, HEPES pH 7.0, 22° C.
Description: as §1, §2, §3

Assay [7] has as its target T3, MMP-7FL (full length matrilysin) (Homo sapiens, UniProt P09237).
T3 sequence (P09237 95-267): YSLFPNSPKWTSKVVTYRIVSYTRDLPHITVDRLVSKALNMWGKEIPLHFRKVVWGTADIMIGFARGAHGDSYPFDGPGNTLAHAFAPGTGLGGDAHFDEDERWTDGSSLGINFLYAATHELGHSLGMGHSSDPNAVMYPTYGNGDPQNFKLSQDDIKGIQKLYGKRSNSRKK
Nature of the assay: Thiopeptolide hydrolysis assay, MMP-7FL. The conditions noted are these: thiopeptolide substrate, HEPES pH 7.0, 22° C.
Description: as §1, §2, §3

For a further assay, the target named is T4, MMP-12CD (Homo sapiens, UniProt P39900).
T4 construct: MMP-12CD
The experiment in a line: Thiopeptolide hydrolysis assay, MMP-12CD. As to conditions: thiopeptolide substrate, HEPES pH 7.0, 22° C.
Description: as §1, §2, §3

Sequence of MMP-9FL (full length Gelatinase B) (P14780 94-707, species assumed): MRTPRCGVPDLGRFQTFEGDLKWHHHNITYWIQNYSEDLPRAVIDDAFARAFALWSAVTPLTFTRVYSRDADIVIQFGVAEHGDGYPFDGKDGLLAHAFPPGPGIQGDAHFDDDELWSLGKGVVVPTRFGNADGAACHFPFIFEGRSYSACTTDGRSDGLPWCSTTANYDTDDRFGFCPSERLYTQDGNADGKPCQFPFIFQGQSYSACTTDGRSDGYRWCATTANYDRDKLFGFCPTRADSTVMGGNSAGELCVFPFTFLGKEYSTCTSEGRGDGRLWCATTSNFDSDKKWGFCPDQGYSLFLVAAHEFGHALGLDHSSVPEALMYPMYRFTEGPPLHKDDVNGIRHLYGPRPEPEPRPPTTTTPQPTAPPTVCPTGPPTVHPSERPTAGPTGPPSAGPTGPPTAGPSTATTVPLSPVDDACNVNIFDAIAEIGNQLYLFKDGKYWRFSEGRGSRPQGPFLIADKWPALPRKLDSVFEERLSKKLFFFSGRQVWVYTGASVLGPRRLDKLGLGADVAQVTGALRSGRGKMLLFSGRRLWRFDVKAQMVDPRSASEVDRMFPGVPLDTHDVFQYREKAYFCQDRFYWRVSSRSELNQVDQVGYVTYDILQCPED
Sequence of MMP-3CD (catalytic domain of stromelysin-1) (P08254 100-272 limits assumed): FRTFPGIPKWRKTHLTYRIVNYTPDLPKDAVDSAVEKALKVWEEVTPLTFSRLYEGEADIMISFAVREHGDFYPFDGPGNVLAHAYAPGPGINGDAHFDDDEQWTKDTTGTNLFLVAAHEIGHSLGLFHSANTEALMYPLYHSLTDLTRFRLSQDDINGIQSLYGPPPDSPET
T4 sequence (P39900 106-263 limits assumed): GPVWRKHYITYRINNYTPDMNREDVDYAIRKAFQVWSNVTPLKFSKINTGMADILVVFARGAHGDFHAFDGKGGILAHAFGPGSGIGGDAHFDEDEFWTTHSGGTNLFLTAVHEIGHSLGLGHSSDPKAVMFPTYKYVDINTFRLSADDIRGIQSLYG

Regarding `COc1ccc(-c2ccc(S(=O)(=O)N3CCSC(C)(C)[C@@H]3C(=O)O)cc2)cc1C=O` [Example 48, (S)-4-(3′-Formyl-4′-methoxy-biphenyl-4-sulfonyl)-2,2-dimethyl-thiomorpholine-3-carboxylic acid], the concentration for half-maximal inhibition (IC50) in assay [1] was determined as 1.55 µM; in assay [2], 0.775 µM; in assay [3] it was 25.8 µM; in assay [4], 2.04 µM; in assay [5] it was 0.037 µM.

For the compound `CC1(C)SCCN(S(=O)(=O)c2ccc(-c3ccc(Br)cc3)cc2)[C@H]1C(=O)NO` [Example 2, (S)-4-(4′-Bromo-biphenyl-4-sulfonyl)-2,2-dimethyl-thiomorpholine-3-carboxylic acid hydroxyamide], the IC50 in assay [6] worked out at 0.002 µM; in assay [1], 0.002 µM; in assay [2], 0.002 µM; in assay [7], 0.037 µM; in assay [3], 0.001 µM; in assay [4], 0.001 µM. In assay [5], this compound yielded a half-maximal inhibitory concentration (IC50) of 0.001 µM.

Turning to `CC1(C)SCCN(S(=O)(=O)c2ccc(-c3ccc(CO)cc3)cc2)[C@H]1C(=O)O` [Example 5, (S)-4-(4′-Hydroxymethyl-biphenyl-4-sulfonyl)-2,2-dimethyl-thiomorpholine-3-carboxylic acid], the IC50 in assay [6] was 1.5 µM; in assay [1], 0.018 µM; in assay [2], 0.027 µM; in assay [7], 10 µM; in assay [3], 0.063 µM; in assay [4] it was 0.047 µM. In assay [5], this compound came in with an IC50 of 0.24 µM.

For the compound `CN(C)c1ccc(-c2ccc(S(=O)(=O)N3CCSC(C)(C)[C@@H]3C(=O)O)cc2)cc1` [Example 54], the concentration for half-maximal inhibition (IC50) in assay [6] worked out at 11.3 µM; in assay [1], 0.024 µM; in assay [2], 0.03 µM; in assay [3] it was 0.17 µM; at MMP-12CD, 0.0103 µM; in assay [4] it was 0.013 µM. This compound yielded a half-maximal inhibitory concentration (IC50) in assay [5] of 0.19 µM.

For the compound `CC1(C)[C@H](C(=O)O)N(S(=O)(=O)c2ccc(-c3ccc(Br)cc3)cc2)CCS1(=O)=O` [Example 3, (S)-4-(4′-Bromo-biphenyl-4-sulfonyl)-2,2-dimethyl-1,1-dioxo-thiomorpholine-3-carboxylic acid], the half-maximal inhibitory concentration (IC50) in assay [6] worked out at 1.7 µM; in assay [1], 0.012 µM; in assay [2], 0.005 µM; in assay [7] it was 8.8 µM; in assay [3], 0.78 µM; in assay [4], 0.032 µM. The IC50 in assay [5] was found to be 0.059 µM.

`CC1(C)SCCN(S(=O)(=O)c2ccc(-c3ccc(Cl)s3)cc2)[C@H]1C(=O)O` [Example 50, (S)-4-[4-(5-Chloro-thiophen-2-yl)-benzenesulfonyl]-2,2-dimethyl-thiomorpholine-3-carboxylic acid]: the IC50 in assay [1] was found to be 0.024 µM; in assay [2], 0.019 µM; in assay [3], 1.5 µM; in assay [4], 0.12 µM.

In the case of `CC1(C)SCCN(S(=O)(=O)c2ccc(-c3ccc(Cl)cc3Cl)cc2)[C@H]1C(=O)O` [Example 56, (S)-4-(2′,4′-Dichloro-biphenyl-4-sulfonyl)-2,2-dimethyl-thiomorpholine-3-carboxylic acid], the half-maximal inhibitory concentration (IC50) came to 0.81 µM in assay [1], 1.5 µM in assay [2], 18 µM in assay [3] and 1.1 µM in assay [4].

As for `COc1cc(-c2ccc(S(=O)(=O)N3CCSC(C)(C)[C@@H]3C(=O)O)cc2)cc(OC)c1OC` [Example 55, (S)-2,2-Dimethyl-4-(3′,4′,5′-trimethoxy-biphenyl-4-sulfonyl)-thiomorpholine-3-carboxylic acid], the IC50 came out at 8.8 µM in assay [1], 8.9 µM in assay [2], 59 µM in assay [3] and 7.7 µM in assay [4].

For `CC1(C)SCCN(S(=O)(=O)c2ccc(-c3ccc(Br)cc3)cc2)[C@H]1C(=O)O` [Example 1, (S)-4-(4′-Bromo-biphenyl-4-sulfonyl)-2,2-dimethyl-thiomorpholine-3-carboxylic acid], the IC50 in assay [6] amounted to 3.1 µM; in assay [1] it was 0.006 µM; in assay [2], 0.003 µM; in assay [7] it was 10 µM; in assay [3] it was 0.26 µM; in assay [4], 0.016 µM. In assay [5], this compound returned an IC50 of 0.048 µM.

As for `CC1(C)[C@H](C(=O)NO)N(S(=O)(=O)c2ccc(-c3ccc(Br)cc3)cc2)CCS1(=O)=O` [Example 4, (S)-4-(4′-Bromo-biphenyl-4-sulfonyl)-2,2-dimethyl-1,1-dioxo-thiomorpholine-3-carboxylic acid hydroxyamide], the IC50 in assay [6] was 0.005 µM; in assay [1], 0.001 µM; in assay [2] it was 0.003 µM; in assay [7], 0.031 µM; in assay [3], 0.004 µM; in assay [4] it was 0.001 µM. In addition, in assay [5], the half-inhibitory concentration (IC50) was 0.002 µM.

With `CC1(C)SCCN(S(=O)(=O)c2ccc(-c3cccc(Cl)c3)cc2)[C@H]1C(=O)O` [Example 34, (S)-4-(3′-Chloro-biphenyl-4-sulfonyl)-2,2-dimethyl-thiomorpholine-3-carboxylic acid], the IC50 in assay [1] amounted to 0.187 µM; in assay [2], 0.0703 µM; in assay [3], 10.3 µM; in assay [4] it was 0.243 µM.

`CC1(C)SCCN(S(=O)(=O)c2ccc(-c3ccc(OC(F)(F)F)cc3)cc2)[C@H]1C(=O)O` [Example 45, (S)-2,2-Dimethyl-4-(4′-trifluoromethoxy-biphenyl-4-sulfonyl)-thiomorpholine-3-carboxylic acid]: the IC50 in assay [6] was 5.75 µM; in assay [1] it was 0.0027 µM; in assay [2], 0.004 µM; in assay [3], 0.098 µM; on MMP-12CD, 0.001 µM; in assay [5], 0.128 µM.

Consider `CC(=O)c1cccc(-c2ccc(S(=O)(=O)N3CCSC(C)(C)[C@@H]3C(=O)O)cc2)c1` [Example 61, (S)-4-(3′-Acetyl-biphenyl-4-sulfonyl)-2,2-dimethyl-thiomorpholine-3-carboxylic acid], for which the concentration for half-maximal inhibition (IC50) in assay [1] turned out to be 3.4 µM; in assay [2] it was 0.763 µM; in assay [3], 49 µM; in assay [4] it was 2.9 µM.
